Tests used:
[1] = molecular target: ERK1 (Homo sapiens, UniProt P27361); assay: Kinase assay (Caliper, FAM-labeled peptide), ERK1; type: biochemical
Procedure: (§1) The compound was diluted to the desired concentration with DMSO, transferred 100 μL to a 96-well plate, and performed a gradient dilution 10 μL of compound from each well was taken and mixed with 90 μL of kinase buffer, and then transferred 5 μL from each well to a 384-well plate. Kinase and FAM-labeled peptide and ATP were added to 1× kinase alkaline buffer to obtain 2.5× enzyme solution and 2.5× peptide solution, 10 μL of 2.5× enzyme solution was added to the 384-well assay plate. After incubating for 10 minutes at room temperature, 10 μL of 2.5× peptide solution was added to the 384-well plate. After reacting for a specific time at […], 25 μL of termination buffer was added to stop reaction. After reading the collected data on Caliper, the data was converted to inhibition percentage. Inhibition percentage=(maximum value−conversion value)/(maximum value−minimum value)*100.
(§2) The “maximum” is the DMSO control, the “minimum” indicates the low control.
(§3) Graphpad Prism software was used to perform curve fitting and obtain IC50 value.

[2] = molecular target: ERK2 (Homo sapiens, UniProt P28482); assay: Kinase assay (Caliper, FAM-labeled peptide), ERK2; type: biochemical
Chain of ERK2 (P28482 whole entry): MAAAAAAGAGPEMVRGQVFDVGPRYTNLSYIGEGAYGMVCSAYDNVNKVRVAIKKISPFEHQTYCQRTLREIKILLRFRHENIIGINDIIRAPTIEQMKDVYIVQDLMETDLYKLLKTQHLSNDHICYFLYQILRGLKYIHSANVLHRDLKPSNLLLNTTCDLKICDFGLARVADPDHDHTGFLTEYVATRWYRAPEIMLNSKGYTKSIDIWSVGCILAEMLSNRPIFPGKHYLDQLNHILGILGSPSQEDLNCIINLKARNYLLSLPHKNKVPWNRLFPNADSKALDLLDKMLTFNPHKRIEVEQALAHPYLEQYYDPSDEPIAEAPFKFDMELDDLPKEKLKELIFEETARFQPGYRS
Procedure: as §1, §2, §3

Chain of ERK1 (P27361 whole entry): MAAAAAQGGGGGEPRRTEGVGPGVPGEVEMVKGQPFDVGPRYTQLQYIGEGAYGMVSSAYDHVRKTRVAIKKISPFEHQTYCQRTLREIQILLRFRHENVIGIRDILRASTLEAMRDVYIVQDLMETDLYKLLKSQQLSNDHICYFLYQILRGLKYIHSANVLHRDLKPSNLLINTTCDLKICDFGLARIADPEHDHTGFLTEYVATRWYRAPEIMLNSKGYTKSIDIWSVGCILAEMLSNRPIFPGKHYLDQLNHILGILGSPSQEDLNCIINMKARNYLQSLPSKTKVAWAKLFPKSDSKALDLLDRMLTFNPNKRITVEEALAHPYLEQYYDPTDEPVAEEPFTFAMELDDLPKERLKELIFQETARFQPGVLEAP

IC50 [1] [nM]	IC50 [2] [nM]	Structure (SMILES)
1.6	1.2	COC[C@H]1Cn2cc(-c3ccnc(NC4CCOCC4)c3)cc2C(=O)N1Cc1cc(F)ccc1CO [Example 67, (R)-2-(5-fluoro-2-(hydroxymethyl)benzyl)-3-(methoxymethyl)-7-(2-((tetrahydro-2h-pyran-4-yl)amino)pyridine-4-yl)-3,4-dihydropyrrolo [1,2-a]pyrazine-1(2H)-one]
1.8	2	COC[C@H]1Cn2cc(-c3cc(NC4CCC4)ncc3Cl)cc2C(=O)N1Cc1cc(F)ccc1CO [Example 70, (R)-7-(5-chloro-2-(cyclobutylamino)pyridin-4-yl)-2-(5-fluoro-2-(hydroxymethyl)benzyl)-3-(methoxymethyl)-3,4-dihydropyrrolo[1,2-a] pyrazine-1(2H)-one]
3.1	0.9	COCC1Cn2cc(-c3cc(NC4CCN(C(C)C)CC4)ncc3Cl)cc2C(=O)N1Cc1cc(F)ccc1CO (stereo not drawn) [Example 73, 7-(5-chloro-2-((1-isopropylpiperidin-4-yl)amino)pyridine-4-yl)-2-(5-fluoro-2-(hydroxymethyl)benzyl)-3-(methoxymethyl)-3,4-dihydropyrrolo[1,2-a] pyrazine-1(2H)-one]
1.2	1.3	COC[C@H]1Cn2cc(-c3cc(NC4CC4)ncc3Cl)cc2C(=O)N1Cc1cc(F)ccc1CO [Example 74, (R)-7-(5-chloro-2-(cyclopropylamino)pyridin-4-yl)-2-(5-fluoro-2-(hydroxymethyl)-benzyl)-3-(methoxymethyl)-3,4-dihydropyrrolo[1,2-a] pyrazine-1(2H)-one]
1.1	1.5	COC[C@H]1Cn2cc(-c3cc(NC4CCCC4)ncc3Cl)cc2C(=O)N1Cc1cc(F)ccc1CO [Example 77, (R)-7-(5-chloro-2-(cyclopentylamino)pyridin-4-yl)-2-(5-fluoro-2-(hydroxymethyl)benzyl)-3-(methoxymethyl)-3,4-dihydropyrrolo[1,2-a] pyrazine-1(2H)-one]
0.87	1.5	COC[C@H]1Cn2cc(-c3cc(NC4CCOC(C)(C)C4)ncc3Cl)cc2C(=O)N1Cc1cc(F)ccc1CO (stereo partly drawn) [Example 78, (3R)-7-(5-chloro-2-((2,2-dimethyltetrahydro-2h-pyran-4-yl)amino)pyridine-4-yl)-2-(5-fluoro-2-(hydroxymethyl)benzyl)-3-(methoxymethyl)-3,4-dihydropyrrolo[1,2-a] pyrazine-1(2H)-one]
0.36	0.39	COC[C@H]1Cn2cc(-c3cc(NC4COC(C)(C)C4)ncc3Cl)cc2C(=O)N1Cc1cc(F)ccc1CO (stereo partly drawn) [Example 79, (3R)-7-(5-chloro-2-((5,5-dimethyltetrahydrofuran-3-yl)amino)pyridine-4-yl)-2-(5-fluoro-2-(hydroxymethyl)benzyl)-3-(methoxymethyl)-3,4-dihydropyrrolo[1,2-a] pyrazine-1(2H)-one]
0.73	0.68	COC[C@H]1Cn2cc(-c3cc(Nc4cc(C)on4)ncc3Cl)cc2C(=O)N1Cc1cc(F)ccc1CO [Example 80, (R)-7-(5-chloro-2-((5-Methylisoxazole-3-yl)amino)pyridine-4-yl)-2-(5-fluoro-2-(hydroxymethyl)benzyl)-3-(methoxymethyl)-3,4-dihydropyrrolo[1,2-a] pyrazine-1(2H)-one]
1.1	1.5	COC[C@H]1Cn2cc(-c3cc(Nc4c(C)noc4C)ncc3Cl)cc2C(=O)N1Cc1cc(F)ccc1CO [Example 81, (R)-7-(5-chloro-2-((3,5-dimethyl-isoxazole-4-yl)amino)pyridine-4-yl)-2-(5-fluoro-2-(hydroxymethyl)benzyl)-3-(methoxymethyl)-3,4-dihydropyrrolo[1,2-a] pyrazine-1(2H)-one]
0.6	0.7	COCC1Cn2cc(-c3cc(NC4CCN(C(C)=O)CC4)ncc3Cl)cc2C(=O)N1Cc1cc(F)ccc1CO (stereo not drawn) [Example 110, 7-(2-((1-acetylpiperidin-4-yl)amino)-5-chloropyridine-4-yl)-2-(5-fluoro-2-(hydroxymethyl)benzyl)-3-(methoxymethyl)-3,4-dihydropyrrolo[1,2-a] pyrazine-1(2H)-one]
0.9	0.9	COC[C@H]1Cn2cc(-c3cc(NC4CCC(OC)CC4)ncc3Cl)cc2C(=O)N1Cc1cc(F)ccc1CO (stereo partly drawn) [Example 111, (R)-7-(5-chloro-2-((4-methoxycyclohexyl)amino)pyridine-4-yl)-2-(5-fluoro-2-(hydroxymethyl)benzyl)-3-(methoxymethyl)-3,4-dihydropyrrolo[1,2-a] pyrazine-1(2H)-one]
0.4	1	COC[C@H]1Cn2cc(-c3cc(NC(C)=O)ncc3Cl)cc2C(=O)N1Cc1cc(F)ccc1CO [Example 112, (R)-N-(5-chloro-4-(2-(5-fluoro-2-(hydroxymethyl)benzyl)-3-(methoxymethyl)-1-oxo-1,2,3,4-tetrahydropyrrolo [1,2-a]pyrazin-7-yl)pyridine-2-yl) acetamide]
1.3	1.3	COC[C@H]1Cn2cc(-c3cc(Nc4ccn(CC(F)F)n4)ncc3Cl)cc2C(=O)N1Cc1cc(F)ccc1CO [Example 114, (R)-7-(5-chloro-2-((1-(2,2-difluoroethyl)-1h-pyrazole-3-yl)amino)pyridine-4-yl)-2-(5-fluoro-2-(hydroxymethyl)benzyl)-3-(methoxymethyl)-3,4-dihydropyrrolo[1,2-a] pyrazine-1(2H)-one]
1.2	1	COC[C@H]1Cn2cc(-c3cc(NC(=O)c4csc(C)n4)ncc3Cl)cc2C(=O)N1Cc1cc(F)ccc1CO [Example 117, (R)-N-(5-chloro-4-(2-(5-fluoro-2-(hydroxymethyl)benzyl)-3-(methoxymethyl)-1-oxo-1,2,3,4-tetrahydropyrrolo [1,2-a]pyrazin-7-yl)pyridine-2-yl)-2-methylthiazol-4-formamide]
0.2	0.2	Cc1cnc(NC(C)CO)nc1-c1cc2n(c1)CCN(Cc1cc(F)ccc1CO)C2=O (stereo not drawn) [Example 121, 2-(5-fluoro-2-(hydroxymethyl)benzyl)-7-(2-((1-hydroxypropyl-2-yl)amino)-5-methylpyrimidin-4-yl)-3,4-dihydropyrrolo[1,2-a] pyrazine-1(2H)-one]
0.65	0.71	Cc1cnc(NC2COC2)nc1-c1c[nH]c(C(=O)NCc2cc(F)ccc2CO)c1 [Example 122, N-(5-fluoro-2-(hydroxymethyl)benzyl)-4-(5-methyl-2-(oxacyclobutane-3-ylamino)pyrimidin-4-yl)-1h-pyrrole-2-formamide]
0.53	0.44	Cc1cnc(NC(C)C)nc1-c1cc2n(c1)CCN(Cc1cc(F)ccc1CO)C2=O [Example 123, 2-(5-fluoro-2-(hydroxymethyl)benzyl)-7-(2-(isopropylamino)-5-methylpyrimidin-4-yl)-3,4-dihydropyrrolo[1,2-a] pyrazine-1(2H)-one]
0.79	0.98	O=C1c2cc(-c3cc(NCC(F)(F)F)ncc3Cl)cn2CCN1Cc1cc(F)ccc1CO [Example 124, 7-(5-chloro-2-((2,2,2-trifluoroethyl)amino)pyridine-4-yl)-2-(5-fluoro-2-(hydroxymethyl)benzyl)-3,4-dihydropyrrolo[1,2-a] pyrazine-1(2H)-one]
1.6	0.35	COC[C@H]1Cn2cc(-c3ccnc(NC(C)C)n3)cc2C(=O)N1Cc1cc(F)ccc1CO [Example 127, (R)-2-(5-fluoro-2-(hydroxymethyl)benzyl)-7-(2-(isopropylamino)pyrimidin-4-yl)-3-(methoxymethyl)-3.4-dihydropyrrolo[1,2-a] pyrazine-1(2H)-one]
0.65	0.89	O=C1c2cc(-c3cc(NC4CC(F)(F)C4)ncc3Cl)cn2CCN1Cc1cc(F)ccc1CO [Example 128, 7-(5-chloro-2-((3,3-difluorocyclobutyl)amino)pyridine-4-yl)-2-(5-fluoro-2 (hydroxymethyl)benzyl)-3,4-dihydropyrrolo[1,2-a] pyrazine-1(2H)-one]
0.83	1.4	CCNc1ncc(Cl)c(-c2cc3n(c2)C[C@H](COC)N(Cc2cc(F)ccc2CO)C3=O)n1 [Example 131, (R)-7-(5-chloro-2-(ethylamino)pyrimidin-4-yl)-2-(5-fluoro-2-(hydroxymethyl)benzyl)-3-(methoxymethyl)-3,4-dihydropyrrolo[1,2-a] pyrazine-1(2H)-one]
0.8	0.9	CCc1ccccc1Nc1ncc(C)c(-c2cc3n(c2)CCN(Cc2cc(F)ccc2CO)C3=O)n1 [Example 132, 7-(2-((2-Ethylphenyl)amino)-5-methylpyrimidin-4-yl)-2-(5-fluoro-2-(hydroxymethyl)benzyl)-3,4-dihydropyrrolo[1,2-a] pyrazine-1(2H)-one]
0.7	0.7	Cc1cnc(Nc2cccc3c2OCO3)nc1-c1cc2n(c1)CCN(Cc1cc(F)ccc1CO)C2=O [Example 133, 7-(2-(benzo[D][1,3]dioxocyclopentene-4-ylamino)-5-methylpyrimidin-4-yl)-2-(5-fluoro-2-(hydroxymethyl)benzyl)-3,4-dihydropyrrolo[1,2-a] pyrazine-1(2H)-one]
0.5	0.5	Cc1cnc(Nc2ccc3c(cnn3C)c2)nc1-c1cc2n(c1)CCN(Cc1cc(F)ccc1CO)C2=O [Example 134, 2-(5-fluoro-2-(hydroxymethyl)benzyl)-7-(5-methyl-2-((1-methyl-1h-indazole-5-yl)amino)pyrimidin-4-yl)-3,4-dihydropyrrolo[1,2-a] pyrazine-1(2H)-one]

Reference: patent publication US11466013B2 (Betta Pharmaceuticals Co., LTD, priority 2018, dated 2022)
